From patent US7179840B2, “Furancarboxamides” (Bayer CropScience AG, priority 2002, dated 2007)

Key:
[1] = logP determination by HPLC (reversed-phase C18), acidic range; type: physicochemical; conditions: pH 2.3, C18, 43° C., 0.1% aqueous phosphoric acid/acetonitrile
Method: The logP values given in the Preparation Examples were determined in accordance with EEC Directive 79/831 Annex V.A8 by HPLC (High Performance Liquid Chromatography) using a reversed-phase column (C 18). Temperature: 43° C.
Mobile phases for the determination in the acidic range: 0.1% aqueous phosphoric acid, acetonitrile; linear gradient from 10% acetonitrile to 90% acetonitrile.
Calibration was carried out using unbranched alkan-2-ones (having 3 to 16 carbon atoms) with known logP values (determination of the logP values by the retention times using linear interpolation between two successive alkanones).

Venturia inaequalis = test: Venturia Test (Apple)/Protective; type: in vivo; conditions: 240 h, protective, application rate 100 g/ha, evaluation 10 days after inoculation, read-out: Efficacy in %
Method: Venturia Test (Apple)/Protective
(§1) To produce a suitable preparation of active compound, 1 part by weight of active compound is mixed with the stated amounts of solvent and emulsifier, and the concentrate is diluted with water to the desired concentration.
To test for protective activity, young plants are sprayed with the preparation of active compound at the stated application rate. After the spray coating has dried on, the plants are inoculated with an aqueous conidia suspension of the apple scab pathogen Venturia inaequalis and then remained in an incubation cabin at about 20° C. and 100% relative atmospheric humidity for 1 day.
The plants are then placed in a greenhouse at about 21° C. and a relative atmospheric humidity of about 90%.
(§2) Evaluation is carried out 10 days after the inoculation. 0% means an efficacy which corresponds to that of the control, whereas efficacy of 100% means that no infection is observed.

Podosphaera leucotricha = test: Podosphaera Test (Apple)/Protective; type: in vivo; conditions: 240 h, protective, application rate 100 g/ha, evaluation 10 days after inoculation, read-out: Efficacy in %
Method: Podosphaera Test (Apple)/Protective
as §1
To test for protective activity, young plants are sprayed with the preparation of active compound at the stated application rate. After the spray coating has dried on, the plants are inoculated with an aqueous spore suspension of the apple mildew pathogen Podosphaera leucotricha. The plants are then placed in a greenhouse at about 23° C. and a relative atmospheric humidity of about 70%.
as §2

Alternaria solani = test: Alternaria Test (Tomato)/Protective; type: in vivo; conditions: 48 h, protective, application rate 100 g/ha, evaluation 2 days after inoculation, read-out: Efficacy in %
Method: Alternaria Test (Tomato)/Protective
as §1
To test for protective activity, young tomato plants are sprayed with the preparation of active compound at the stated application rate. 1 day after the treatment, the plants are inoculated with an aqueous spore suspension of Alternaria solani. The plants are then placed in an incubation cabin at about 20° C. and 100% relative atmospheric humidity.
Evaluation is carried out 2 days after the inoculation. 0% means an efficacy which corresponds to that of the control, whereas efficacy of 100% means that no infection is observed.

Pyrenophora teres = Pyrenophora teres Test (Barley)/Protective; type: in vivo; conditions: protective, application rate 500 g/ha, evaluation 7 days after inoculation
Method: Pyrenophora teres Test (Barley)/Protective
as §1
To test for protective activity, young plants are sprayed with the preparation of active compound at the stated application rate. After the spray coating has dried on, the plants are sprayed with a conidia suspension of Pyrenophora teres. The plants remain in an incubation cabin at 20° C. and 100% relative atmospheric humidity for 48 h. The plants are then placed in a greenhouse at a temperature of about 20° C. and a relative atmospheric humidity of about 80%.
(§3) Evaluation is carried out 7 days after the inoculation. 0% means an efficacy which corresponds to that of the control, whereas efficacy of 100% means that no infection is observed.

Sphaerotheca fuliginea = test: Sphaerotheca Test (Cucumber)/Protective; type: in vivo; conditions: protective, application rate 750 g/ha, evaluation 7 days after inoculation
Method: Sphaerotheca Test (Cucumber)/Protective
as §1
To test for protective activity, young cucumber plants are sprayed with the preparation of active compound at the stated application rate. 1 day after the treatment, the plants are inoculated with a spore suspension of Sphaerotheca fuliginea. The plants are then placed in a greenhouse at 70% relative atmospheric humidity and temperature of 23° C.
as §3

| chromatographic logP ([1]; reversed-phase C18 HPLC column) | SMILES | chromatographic logP [1] | pest or weed control at 100 g/ha (Venturia inaequalis) [%] | pest or weed control at 100 g/ha (Podosphaera leucotricha) [%] | pest or weed control at 100 g/ha (Alternaria solani) [%] | Efficacy in % (Pyrenophora teres) [%] | Efficacy in % (Sphaerotheca fuliginea) [%] |
| --- | --- | --- | --- | --- | --- | --- | --- |
|  | Cc1occc1C(=O)Nc1ccccc1-c1ccc(OC(F)(F)F)cc1 [Example 5] | 3.91 | 100 | 93 | 92 |  |  |
|  | Cc1occc1C(=O)Nc1ccccc1-c1ccc(Cl)c(Cl)c1 [Example 15] | 3.73 | 100 | 100 | 96 | 90 |  |
|  | Cc1occc1C(=O)Nc1ccccc1-c1ccc(F)c(F)c1 [Example 8] | 3.22 | 100 | 85 | 82 |  |  |
|  | Cc1occc1C(=O)Nc1ccccc1-c1ccc(F)c(Cl)c1 [Example 10] | 3.46 | 100 | 100 | 95 |  |  |
|  | Cc1occc1C(=O)Nc1ccccc1-c1cc(Cl)cc(Cl)c1 [Example 16] | 3.9 |  |  |  |  | 90 |
| 3.38 | Cc1occc1C(=O)Nc1ccccc1-c1ccc(Cl)cc1F [Example 1, N-(4′-chloro-2′-fluoro-1,1′-biphenyl-2-yl)-2-methyl-3-furamide] |  |  |  |  |  |  |
|  | CSc1ccc(-c2ccccc2NC(=O)c2ccoc2C)cc1 [Example 6] | 3.63 | 100 | 92 | 95 |  |  |
|  | Cc1occc1C(=O)Nc1ccccc1-c1ccc(Cl)c(F)c1 [Example 9] | 3.43 | 100 | 97 | 100 |  |  |
|  | Cc1occc1C(=O)Nc1ccccc1-c1ccc(C(F)(F)F)cc1 [Example 3] | 3.53 | 100 | 93 | 100 |  | 100 |
|  | Cc1occc1C(=O)Nc1ccccc1-c1ccc(Br)cc1 [Example 2] | 3.71 | 100 |  | 100 |  | 90 |
|  | Cc1occc1C(=O)Nc1ccccc1-c1cccc(Cl)c1 [Example 4] | 3.58 | 100 | 100 | 98 |  | 95 |
